Reference: patent publication US9193762B2, “Selective inhibitors of prolylcarboxypeptidase” (UNIVERSITY OF MISSISSIPPI, priority 2010, dated 2015)
“Also recorded” adds a separate entry of the source. Each block holds one molecule with its values, some of them ahead of it. Where a SMILES comes first, the peptide text is derived from it. The star is where a group is joined. Cbz = O=C(OCc1ccccc1)*

How the values were obtained:
[1] = biological target: recombinant prolylcarboxypeptidase (rPRCP) (Homo sapiens (Human), UniProt P42785); assay: chromogenic enzyme assay of rPRCP with Ala-Pro-p-nitroaniline (APpNA); format: biochemical
Sequence of recombinant prolylcarboxypeptidase (rPRCP) (P42785 46-496): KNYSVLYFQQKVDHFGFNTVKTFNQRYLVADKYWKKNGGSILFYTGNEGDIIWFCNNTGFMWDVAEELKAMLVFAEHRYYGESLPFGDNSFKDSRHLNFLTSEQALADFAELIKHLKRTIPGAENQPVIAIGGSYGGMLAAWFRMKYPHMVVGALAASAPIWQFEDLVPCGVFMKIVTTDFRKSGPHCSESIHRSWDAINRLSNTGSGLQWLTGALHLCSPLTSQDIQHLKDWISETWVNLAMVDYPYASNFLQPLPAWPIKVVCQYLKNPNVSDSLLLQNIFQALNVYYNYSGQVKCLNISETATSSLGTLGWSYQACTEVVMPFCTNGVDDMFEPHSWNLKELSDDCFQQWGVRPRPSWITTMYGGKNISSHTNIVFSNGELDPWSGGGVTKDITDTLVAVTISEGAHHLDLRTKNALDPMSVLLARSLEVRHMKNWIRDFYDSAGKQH
Experimental: Applicants utilized two assays to evaluate the putative PRCP inhibitors; 1.) a chromogenic enzyme assay, that involved the continual monitoring [60 min] for the production of p-nitroaniline derived from rPRCP-catalyzed conversion of Ala-Pro-p-nitroaniline (APpNA) in the presence of inhibitor and; 2.) a cell-based assay measuring the PRCP-dependent PK activation on human pulmonary artery endothelial cells (HPAEC). […] The effects of the inhibitors of PRCP were determined using a previously published method^31. Briefly, rPRCP was incubated in the presence or absence of various PRCP inhibitors in HEPES-carbonated buffer containing 1 mM Ala-Pro-paranitroaniline (APpNA, a PRCP chromogenic substrate). The final volume was 100 μL and the time of incubation was 60 min. […] Generation of free p-nitroaniline from APpNA was determined by monitoring changes in absorbance at 405 nm. Assays were done a minimum of 3 times.

[2] = tested on: PRCP-dependent PK activation on human pulmonary artery endothelial cells (HPAEC)
Experimental: Applicants utilized two assays to evaluate the putative PRCP inhibitors; 1.) a chromogenic enzyme assay, that involved the continual monitoring [60 min] for the production of p-nitroaniline derived from rPRCP-catalyzed conversion of Ala-Pro-p-nitroaniline (APpNA) in the presence of inhibitor and; 2.) a cell-based assay measuring the PRCP-dependent PK activation on human pulmonary artery endothelial cells (HPAEC). […] Human pulmonary artery endothelial cells (HPAEC) were purchased from Invitrogen (Carlsbad, Calif.) and were cultured as previously described.^20 The cells were grown in Dulbecco's Modified Eagle's Medium (DMEM) overnight in 96 well plates (Costar). […] Gelatin blocking buffer (1% Gelatin) was prepared by adding appropriate amount of 5% gelatin stock to HEPES-carbonated buffer as described above. In the first step, gelatin blocking buffer was used to reduce the non specific binding. As part of this step, the cells were incubated with 1% gelatin buffer for 1 hour.

factor XIIa (FXIIa) = factor XIIa (FXIIa) (Homo sapiens (Human), UniProt P00748); assay: specificity: serine protease FXIIa; format: biochemical
Sequence of factor XIIa (FXIIa) (P00748 373-615): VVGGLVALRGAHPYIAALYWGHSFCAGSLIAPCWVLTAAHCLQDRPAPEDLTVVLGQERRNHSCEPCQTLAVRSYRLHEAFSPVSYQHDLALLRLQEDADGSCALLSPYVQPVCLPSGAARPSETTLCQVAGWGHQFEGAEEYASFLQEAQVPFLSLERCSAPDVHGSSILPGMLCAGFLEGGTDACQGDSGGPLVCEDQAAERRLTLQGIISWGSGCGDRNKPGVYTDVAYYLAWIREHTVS

[3] = biological target: CPN (hCPN, partially purified from plasma) (Homo sapiens (Human), UniProt P15169); assay: carboxypeptidase CPN, metabolism of hippuryl-lysine; format: biochemical
Sequence of CPN (hCPN, partially purified from plasma) (P15169 21-458): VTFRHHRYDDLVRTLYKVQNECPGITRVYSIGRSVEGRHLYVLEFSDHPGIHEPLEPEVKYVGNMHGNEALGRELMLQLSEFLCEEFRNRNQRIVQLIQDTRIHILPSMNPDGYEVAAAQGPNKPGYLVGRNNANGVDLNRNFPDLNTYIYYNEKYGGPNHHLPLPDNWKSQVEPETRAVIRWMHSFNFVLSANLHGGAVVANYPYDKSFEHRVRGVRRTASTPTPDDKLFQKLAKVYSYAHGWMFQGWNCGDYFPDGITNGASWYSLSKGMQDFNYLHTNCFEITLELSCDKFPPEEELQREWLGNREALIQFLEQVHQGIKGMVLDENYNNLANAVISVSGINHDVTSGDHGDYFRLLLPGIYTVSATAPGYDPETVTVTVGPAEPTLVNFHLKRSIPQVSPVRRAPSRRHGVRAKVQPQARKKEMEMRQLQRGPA
Sequence of CPN (hCPN, partially purified from plasma) (P22792 22-545 partner): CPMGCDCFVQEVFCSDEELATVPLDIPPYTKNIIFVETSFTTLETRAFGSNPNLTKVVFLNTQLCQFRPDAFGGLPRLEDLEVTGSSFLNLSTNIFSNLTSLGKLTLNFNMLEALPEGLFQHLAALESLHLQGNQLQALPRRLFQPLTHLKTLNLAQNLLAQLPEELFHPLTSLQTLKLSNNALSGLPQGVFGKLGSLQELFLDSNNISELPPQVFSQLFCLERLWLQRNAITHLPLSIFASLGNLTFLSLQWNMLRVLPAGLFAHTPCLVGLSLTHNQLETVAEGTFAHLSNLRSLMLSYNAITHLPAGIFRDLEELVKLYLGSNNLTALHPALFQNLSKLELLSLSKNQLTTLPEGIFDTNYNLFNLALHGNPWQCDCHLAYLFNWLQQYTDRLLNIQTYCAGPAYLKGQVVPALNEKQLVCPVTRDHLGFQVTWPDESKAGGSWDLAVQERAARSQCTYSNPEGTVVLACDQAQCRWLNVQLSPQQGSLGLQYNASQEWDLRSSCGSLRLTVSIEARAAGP
Excerpt: While BK exerts its vasodilatory effect through the bradykinin B2 receptors (BKB2R), des-Arg9-BK (a substrate of PRCP) mediates its effect via the selective bradykinin B1 receptors (BKB1R). […] Carboxypeptidase A (CPA) is a highly conserved protease, which is present in pancreas and the secretory granules of mast cells. Although its substrate selectivity is different than that of PRCP, both CPA and PRCP can cleave the C-terminal aromatic or aliphatic amino acids of proteins or peptides. […] All values were calculated as percentage of positive control after subtraction of background. […] Commercially available pooled normal human serum was used. The tubes were tightly covered, vortexed for 15 seconds and incubated for 60 min at 37° C. in a shaker water bath. The enzymatic reaction was stopped by addition of 250 μL of 1 M HCl solution and vortexed for 15 seconds. The blanks were stopped immediately after the addition of serum by 250 μL of 1M HCl before incubation. All samples were incubated on ice for 5 min. 1500 μL ethyl acetate was added, vortexed for 30 s and centrifuged for 10 min at 4000 g. 1 mL of the upper layer (ethyl acetate) was transferred into a 5 mL test tube and placed in a boiling water bath for 45-60 min to evaporate the ethyl acetate thoroughly, 3 mL of 1M NaCl solution was added to each tube and vortexed for 30 s. All samples were placed in water bath at 70° C. for 5 min to redissolve all the residual hippuric acid, then vortexed for 30 s. After 15 min of incubation at room temperature, the absorbance of hippuric acid was read at λ=228 nm.
The reaction mixture was incubated at 37° C. for 1 h. The reaction was stopped by the addition of 0.5 M HCl.

CPM = CPM (Homo sapiens (Human), UniProt P14384); assay: carboxypeptidase CPM, metabolism of hippuryl-lysine; format: biochemical
Sequence of CPM (P14384 18-443, species assumed): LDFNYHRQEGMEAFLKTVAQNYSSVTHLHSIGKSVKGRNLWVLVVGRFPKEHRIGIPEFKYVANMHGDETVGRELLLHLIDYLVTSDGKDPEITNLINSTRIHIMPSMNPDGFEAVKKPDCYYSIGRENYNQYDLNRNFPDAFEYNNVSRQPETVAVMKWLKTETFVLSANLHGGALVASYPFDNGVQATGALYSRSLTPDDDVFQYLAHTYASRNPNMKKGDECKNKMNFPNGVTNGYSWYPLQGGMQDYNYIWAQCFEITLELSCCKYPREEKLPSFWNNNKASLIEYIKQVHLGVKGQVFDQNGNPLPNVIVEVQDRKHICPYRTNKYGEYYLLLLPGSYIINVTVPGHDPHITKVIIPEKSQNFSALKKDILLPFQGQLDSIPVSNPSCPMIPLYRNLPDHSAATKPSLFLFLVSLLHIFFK

[4] = biological target: carboxypeptidase A [CPA, EC 3.4.17.1] (Bos taurus, UniProt P00730); assay: carboxypeptidase A inhibition; format: biochemical
Sequence of carboxypeptidase A [CPA, EC 3.4.17.1] (P00730 111-419 limits assumed): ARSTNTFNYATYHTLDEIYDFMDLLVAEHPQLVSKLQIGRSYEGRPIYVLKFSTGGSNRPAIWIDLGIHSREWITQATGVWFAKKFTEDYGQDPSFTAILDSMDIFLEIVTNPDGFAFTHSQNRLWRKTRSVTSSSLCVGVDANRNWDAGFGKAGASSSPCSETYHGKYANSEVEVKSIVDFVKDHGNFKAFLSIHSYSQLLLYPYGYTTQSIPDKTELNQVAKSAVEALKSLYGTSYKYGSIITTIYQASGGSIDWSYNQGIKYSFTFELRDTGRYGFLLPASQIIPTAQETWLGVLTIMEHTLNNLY
Excerpt: While BK exerts its vasodilatory effect through the bradykinin B2 receptors (BKB2R), des-Arg9-BK (a substrate of PRCP) mediates its effect via the selective bradykinin B1 receptors (BKB1R). […] Carboxypeptidase A (CPA) is a highly conserved protease, which is present in pancreas and the secretory granules of mast cells. Although its substrate selectivity is different than that of PRCP, both CPA and PRCP can cleave the C-terminal aromatic or aliphatic amino acids of proteins or peptides. […] The reaction mixture was incubated at 37° C. for 1 h. The reaction was stopped by the addition of 0.5 M HCl.

[5] = biological target: carboxypeptidase B [CPB, EC 3.4.17.2] (Sus scrofa, UniProt P09955); assay: carboxypeptidase B inhibition; format: biochemical
Sequence of carboxypeptidase B [CPB, EC 3.4.17.2] (P09955 111-416 limits assumed): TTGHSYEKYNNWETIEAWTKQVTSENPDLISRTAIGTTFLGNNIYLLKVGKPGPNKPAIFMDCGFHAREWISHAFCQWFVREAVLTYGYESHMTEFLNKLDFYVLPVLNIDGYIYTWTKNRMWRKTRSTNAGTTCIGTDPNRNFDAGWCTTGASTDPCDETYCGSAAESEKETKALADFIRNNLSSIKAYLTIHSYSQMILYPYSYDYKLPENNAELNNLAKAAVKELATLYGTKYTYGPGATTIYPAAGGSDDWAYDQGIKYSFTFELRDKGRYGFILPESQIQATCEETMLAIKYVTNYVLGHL

α-kallikrein = α-kallikrein (Homo sapiens (Human), UniProt P03952); assay: specificity: serine protease α-kallikrein; format: biochemical
Sequence of α-kallikrein (P03952 391-638): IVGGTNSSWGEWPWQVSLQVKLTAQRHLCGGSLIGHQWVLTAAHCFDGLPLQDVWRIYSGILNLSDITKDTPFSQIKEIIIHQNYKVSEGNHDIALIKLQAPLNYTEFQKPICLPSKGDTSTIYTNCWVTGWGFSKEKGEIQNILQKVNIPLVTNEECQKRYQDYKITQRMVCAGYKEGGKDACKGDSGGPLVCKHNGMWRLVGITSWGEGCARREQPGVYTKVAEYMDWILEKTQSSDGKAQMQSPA
Sequence of α-kallikrein (P03952 20-390 partner): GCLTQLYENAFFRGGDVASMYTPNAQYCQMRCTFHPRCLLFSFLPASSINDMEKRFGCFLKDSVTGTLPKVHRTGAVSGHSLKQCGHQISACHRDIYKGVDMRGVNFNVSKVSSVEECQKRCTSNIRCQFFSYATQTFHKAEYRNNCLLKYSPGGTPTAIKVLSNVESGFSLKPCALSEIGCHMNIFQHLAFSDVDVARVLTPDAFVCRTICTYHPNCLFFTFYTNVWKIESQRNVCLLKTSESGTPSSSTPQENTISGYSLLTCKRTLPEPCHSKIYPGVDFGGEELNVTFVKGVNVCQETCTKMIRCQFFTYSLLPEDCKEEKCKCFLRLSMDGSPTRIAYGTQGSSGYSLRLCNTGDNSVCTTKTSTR

factor XIa (FXIa) = factor XIa (FXIa) (Homo sapiens (Human), UniProt P03951); assay: specificity: serine protease FXIa; format: biochemical
Sequence of factor XIa (FXIa) (P03951 388-625): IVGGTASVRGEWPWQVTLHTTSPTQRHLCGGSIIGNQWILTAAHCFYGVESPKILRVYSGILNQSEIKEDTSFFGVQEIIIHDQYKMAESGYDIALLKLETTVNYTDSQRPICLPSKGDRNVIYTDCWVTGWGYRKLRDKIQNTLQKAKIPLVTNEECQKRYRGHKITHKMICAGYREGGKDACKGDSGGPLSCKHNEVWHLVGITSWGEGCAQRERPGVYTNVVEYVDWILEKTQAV
Sequence of factor XIa (FXIa) (P03951 19-387 partner): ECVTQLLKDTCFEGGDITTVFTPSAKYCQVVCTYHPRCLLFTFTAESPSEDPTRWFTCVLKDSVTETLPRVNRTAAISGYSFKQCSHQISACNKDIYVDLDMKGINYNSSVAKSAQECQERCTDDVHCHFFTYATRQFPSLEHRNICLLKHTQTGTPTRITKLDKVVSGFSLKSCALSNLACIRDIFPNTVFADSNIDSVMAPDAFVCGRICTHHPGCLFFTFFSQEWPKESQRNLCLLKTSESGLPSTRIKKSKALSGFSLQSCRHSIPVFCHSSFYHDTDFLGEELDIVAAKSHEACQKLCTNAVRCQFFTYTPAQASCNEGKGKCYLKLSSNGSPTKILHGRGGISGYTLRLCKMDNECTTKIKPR

HPAEC permeability = assay: in vitro vascular permeability assay, HPAEC monolayer with HK/PK complex; format: cell-based, human
Experimental: The effect of the inhibitors of PRCP on vascular permeability was assessed using an in vitro vascular permeability assay kit (Chemicon/Millipore, Mass.) according to the manufacturer's protocol. Briefly, collagen coating solution in 0.2×PBS, pH 7.1 was added to the inserts. After incubating for 1 h at room temperature, the inserts were hydrated with cell growth medium for 15 min and seeded with 200 μL of cell suspension (1.0×10^6 HPAEC/mL). The plate was incubated at 37° C. for 24 h until a cell monolayer was formed. The inserts were then treated with cell basal medium (negative control); 1 μg/mL LPS (positive control); 0.1 μM HK/PK complex in the absence or presence of HOE-140 (1 μM) and lisinopril (1 μM, […]) and incubated at 37° C. for 18 h. […] The fluorescence was read at an excitation wavelength of 485 nm and an emission wavelength of 528 nm using BioTek Synergy 2 Multi-Mode Microplate Reader.

[6] = toxicity: 14 metabolic markers in mice; format: in vivo
Excerpt: The blood glucose level was decreased in drug-treated mice (n=3) by 15%.

food intake of mice = assay: food intake in fasted mice after i.p. injection; format: in vivo
Experimental: Mice were single housed one week before the experiment. Male mice (n=6 per group; 4 months old) were then food deprived for 24 hours. […] Food intake was measured at 1 hour, 2 hours, 4 hours 8 hours and 24 hours.

[7] = tested on: carotid artery thrombosis in wild type C57BL/6 mice; assay: FeCl3 carotid artery thrombosis model, wild type mice; conditions: 10 mg/kg IV, 3.5% FeCl3, vs PBS
Experimental: (§1) C57Bl/6 WT mice and C57Bl/6 mice deficient in factor fXII (FXII^−/−), were used in these studies. The procedures were approved by the Institutional Animal Care and Use Committee of Vanderbilt University. After anesthesia with pentobarbital (50 mg/kg IP), the right common carotid artery was exposed and fitted with a Doppler flow probe (Model 0.5 VB, Transonic System, Ithaca, N.Y.). […] Flow was monitored for 30 min. Mice were sacrificed by pentobarbital overdose after conclusion of the experiment, while under anesthesia.

[8] = tested on: carotid artery thrombosis in FXII−/− mice; assay: FeCl3 carotid artery thrombosis model, FXII-deficient mice
Experimental: as §1

trypsin = assay: specificity: serine protease trypsin; format: biochemical
[9] = failed to inhibit at these concentrations

Molecule: O=C[C@@H]1CCCN1C(=O)[C@@H]1CCCN1C(=O)OCc1ccccc1 [Z-Pro-Pro-OH, 1-[1-(benzyloxycarbonyl)-L-prolyl]prolinal, reference compound] (Cbz-Pro-Pro-aldehyde)
- rPRCP inhibition (in words) [1]: a little effect
- blocking of PK activation on HPAEC (in words) [2]: a little effect

Molecule: CCOCCOCCOCCCNC(=O)[C@@H]1CCCN1C(=O)[C@@H]1CCCN1C(=O)OCc1ccccc1 [RS-33-22, (S)-benzyl-2-((S)-2-((3-(2-(2-ethoxyethoxy)ethoxy)propyl)carbamoyl)pyrrolidine-1-carbonyl) pyrrolidine-1-carboxylate]
- rPRCP inhibition (in words) [1]: ineffective
- blocking of PK activation on HPAEC (in words) [2]: ineffective

Molecule: CCCCCCCCCCCCNC(=O)[C@@H]1CCCN1C(=O)[C@@H]1CCCN1.Cl [RS-33-21, (S)—N-dodecyl-1-((S)-pyrrolidine-2-carbonyl)pyrrolidine-2-carboxamide hydrochloride]
- concentration at which kallikrein was not inhibited (α-kallikrein; [9]): > 1.0 mM
- concentration at which FXIIa was not inhibited (factor XIIa (FXIIa); [9]): > 1.0 mM
- concentration at which FXIa was not inhibited (factor XIa (FXIa); [9]): > 1.0 mM
- inhibition of CPN (in words) ([3]; metabolism of hippuryl-lysine): did not inhibit
- inhibition of CPM (in words) (CPM; metabolism of hippuryl-lysine): did not inhibit
- inhibition of CPA (in words) [4]: not inhibited
- inhibition of CPB (in words) [5]: not inhibited
- reduction of cell permeability (HPAEC permeability; 100 μM, in the presence of HK/PK (0.1 μM each)): 90%
- BK-induced permeability blocked (HPAEC permeability; concentration not given): 100%
- decrease in blood glucose level ([6]; drug-treated mice, n=3): 15%
- glucose levels compared with control mice (in words) ([6]; mice, Table 16): relatively low but not statistically significant
- increase in blood amylase compared to sham animals ([6]; mice, n=3): 20%
- change in electrolyte levels, body water, markers of kidneys and liver ([6]; mice, within 8 h): failed to cause any significant change
- time to start of attenuation of food intake (food intake of mice; i.p.): ≤ 1 h
- food intake at 1 mg/kg (food intake of mice; i.p. 1 mg/kg): lower food intake, although the reduction was not significant at 2, 4, 8, or 24 h
- food intake at 10 mg/kg (food intake of mice; i.p. 10 mg/kg, all time intervals): Significant declines in food intake
- food intake, dose and time dependence (food intake of mice; i.p., 1, 10 or 100 mg/kg, hydrochloride): induced appetite loss that was dose- and time-dependent; also recorded: inhibited food intake; also recorded: reduced food-intake in mice in a dose- and time-dependent fashion; also recorded: reduced food intake in mice in a dose-dependent and time-dependent manner
- food intake at 100 mg/kg (food intake of mice; single i.p. injection 100 mg/kg, 1-24 h, hydrochloride): Significant declines in food intake; also recorded: reduced food intake
- vessel occlusion [7]: did not prevent vessel occlusion
- time to arterial occlusion ([7]; hydrochloride): nor prolong the time to arterial occlusion; also recorded: did not observe shortening of carotid artery occlusion times
- antithrombotic effect (in words) ([8]; FXII deficient mice): evidence for an antithrombotic effect
- mice that did not develop occlusion ([8]; FXII−/− mice, 10 mg/kg IV, 12.5% FeCl3): 4 of 6

Other lines, results leading:

- IC50 (factor XIIa (FXIIa)): 200 nM
- Ki (factor XIIa (FXIIa)): 120 nM
Molecule: corn trypsin inhibitor

- IC50 [3]: 1 mM
- Ki [3]: 615 µM
- IC50 (CPM): 640 µM
- Ki (CPM): 394 µM
- Ki, CPA [4]: 486 ηM
- Ki, CPB [5]: 738.5 ηM
Molecule: c1cnc2c(c1)ccc1cccnc12 [1,10-phenanthroline]

- IC50 (α-kallikrein): 10 µM
- IC50 (factor XIa (FXIa)): 1000 nM
- IC50 (trypsin): 200 nM
B1: soybean trypsin inhibitor: soybean trypsin inhibitor (SBTI), comparison inhibitor of kallikrein, FXIa and trypsin (protein, UniProt P01070 25-205, looked up)
Trypsin inhibitor A: DFVLDNEGNPLENGGTYYILSDITAFGGIRAAPTGNERCPLTVVQSRNELDKGIGTIISSPYRIRFIAEGHPLSLKFDSFAVIMLCVGIPTEWSVVEDLPEGPAVKIGENKDAMDGWFRLERVSDDEFNNYKLVFCPQQAEDDKCGDIGISIDHDDGTRRLVVSKNKPLVVQFQKLDKESL
